The record followed here is patent publication US20040132764A1, “Antibiotics for the treatment of infections in acidic environments” (Morphochem Aktiengesellschaft fuer Kombinatorische Chemie, priority 2002, published 2004).

Values after ≈ are worked out from the molar mass of the structure shown. Where two headings read alike, the source gives them in different places.

The assay relates to bacterial strains from the Morphochem collection. The assay can be described thus: MIC determination by microdilution method (NCCLS guidelines, IsoSensitest broth) with pH of the test medium varied. The assay is classed as cell-based. Particulars: strain not named. As to the method: MICs (minimal inhibitory concentrations) were determined by a microdilution method following NCCLS guidelines, except that IsoSensitest broth (Oxoid; Basingstroke, UK) was used (National Committee for Clinical Laboratory Standards “Methods for Dilution Antimicrobial Susceptibility Tests for Bacteria that Grow Aerobically”, 4th ed.; Approved standard: NCCLS Document M7-A4; National Committee for Clinical Laboratory Satandars: Villanova, Pa., USA, 1997). The medium was supplemented with 3% lysed horse blood for fastidious organisms. Serial dilutions in 96-well plates were prepared with the help of a Biomek 2000 robot. The pH of the test medium was varied from 7.8 to 6.4. The bacterial strains used were from the Morphochem collection. Clinical isolates were originally obtained from the Kantonspital Basel, Switzerland, and from other European and US hospitals.
pH-dependent antibacterial activity (MIC (μg/mL) at pH): […]
For orientation: Broth dilution looks for growth in wells or tubes with falling amounts of substance.

[1] abbreviates: pH 6.4 of test medium, read-out: pH-dependent antibacterial activity (MIC at pH) 6.4.
[2] abbreviates: pH 6.8 of test medium, read-out: pH-dependent antibacterial activity (MIC at pH) 6.8.
[3] abbreviates: pH 7.4 of test medium, read-out: pH-dependent antibacterial activity (MIC at pH) 7.4.
Setting [4] is: pH 7.8 of test medium, read-out: pH-dependent antibacterial activity (MIC at pH) 7.8.

In the case of `CC(=O)NC[C@H]1CN(c2ccc(N3CCN(c4cc5c(cc4F)c(=O)c(C(=O)O)cn5C4CC4)CC3)c(F)c2)C(=O)O1` [Example 1, 7-(4-{4-[5-(acetylamino-methyl)-2-oxo-oxazolidin-3-yl]-2-fluoro-phenyl}-piperazin-1-yl)-1-cyclopropyl-6-fluoro-4-oxo-1,4-dihydro-quinoline-3-carboxylic Acid], the minimal inhibitory concentration (MIC) was found to be 0.03 mg/L (≈ 0.0516 µM) under setting [1], 0.125 mg/L (≈ 0.215 µM) under setting [2], 0.25 mg/L (≈ 0.43 µM) under setting [3] and 0.5 mg/L (≈ 0.86 µM) under setting [4].

Take `CC(=O)NC[C@H]1CN(c2ccc(N[C@@H]3CCN(c4cc5c(cc4F)c(=O)c(C(=O)O)cn5C4CC4)C3)c(F)c2)C(=O)O1` [Example 4]: the minimum inhibitory concentration (MIC) amounted to 0.03 mg/L (≈ 0.0516 µM) under setting [1], 0.06 mg/L (≈ 0.103 µM) under setting [2], 0.25 mg/L (≈ 0.43 µM) under setting [3] and 0.5 mg/L (≈ 0.86 µM) under setting [4].

For `CC(=O)NC[C@H]1CN(c2ccc(N3CCN(c4nc5c(cc4F)c(=O)c(C(=O)O)cn5C4CC4)CC3)c(F)c2)C(=O)O1` [Example 10], the minimal inhibitory concentration (MIC) is, setting by setting: under setting [1], 0.125 mg/L (≈ 0.215 µM); under setting [2], 0.25 mg/L (≈ 0.429 µM); under setting [3], 0.5 mg/L (≈ 0.858 µM); under setting [4], 1 mg/L (≈ 1.72 µM).

On to `CC(=O)NC[C@H]1CN(c2ccc(N3CCOCC3)c(F)c2)C(=O)O1` [linezolid, reference compound], for which the MIC was found to be 0.5 mg/L (≈ 1.48 µM) under setting [1], 0.5 mg/L (≈ 1.48 µM) under setting [2], 1 mg/L (≈ 2.96 µM) under setting [3] and 1 mg/L (≈ 2.96 µM) under setting [4].

In general, MIC refers to the lowest concentration found to suppress growth.
